Source: paper PMC7595621, “Quorum sensing N-Acyl homoserine lactones are a new class of anti-schistosomal” (PLoS Neglected Tropical Diseases, 2020)
Converted amounts (≈) assume the structure as drawn. Where two headings read alike, the source gives them in different places.

Assays:
E. coli ATCC 25922 = assay: Broth microdilution MIC and IC50 determination, E. coli; format: cell-based; settings: Escherichia coli; for MIC: ATCC25922, 24 h, 24 hr
Procedure: (§1) S. aureus ATCC 29213 and E. coli ATCC 25922 were cultured in Luria-Bertani (LB) medium at 37°C with aeration at 200 rpm for 24 hr, with all procedures performed in a biosafety level 2 (BSL2) cabinet. Stationary phase cultures were then used for minimum inhibitory concentration (MIC) determination using the broth microdilution method, in fresh LB medium, in a 96-well plate. All compounds were tested in triplicate using an initial bacterial concentration of 5.0 × 10^5 colony forming units (CFU)/mL at a final concentration of 125 mg/L (5% and 2.5% v/v methanol). Compounds with no visible growth at 125 mg/L were further evaluated with progressing dilutions. […] Dilutions were repeated in three independent experiments where the optical density (OD600) was measured in a Hidex plate spectrophotometer and absorbance data used for the calculation of an IC50 value. The IC50 value was obtained from a dose response titration (125–0.09 mg/L). Dose response curves were obtained by non-linear regression, after log transformation of concentrations and data normalization using GraphPad Prism 7.02.
(§2) As Compound 1 was structurally similar to N-acyl homoserine lactones, a compound class involved in bacterial quorum sensing, we decided to assess its antimicrobial activity and determine if enantiomer separation or lactone ring substitution would change this activity.

[1] = test system: juvenile S. mansoni worms; assay: Screening of juvenile S. mansoni blood flukes (3-week worms), motility scoring; format: cell-based, Schistosoma mansoni; settings: for Selectivity index, juvenile worm: HepG2 CC50 / juvenile worm EC50; for EC50: Schistosoma mansoni, 3-week worms, motility scores, read-out: JUVENILE WORM EC50
Procedure: (§3) Juvenile S. mansoni parasites were recovered via hepatic portal vein perfusion from TO outbred mice (HsdOla:TO, Tuck-Ordinary, Envigo, UK) that were infected percutaneously three weeks earlier with 4000 cercariae. Preparation and centrifugation of juvenile worms have been described previously. […] After motility quantification, 2 μg/mL of PI was added to each well and the plate returned to 37°C, 5% CO2 for 15 minutes. Each well was subsequently imaged on the Roboworm platform using brightfield and fluorescent microscopy (excitation wavelength = 580 nm; emission wavelength = 604 nm). The number of PI positive vs PI negative juvenile worms were cross-checked with the motility scores obtained by our scoring matrix, and the data reported as percentage of PI positive across all parasites within the well. EC50 values were calculated from the motility scores obtained from the dose response titration (as detailed above) and dose response curves were obtained by non-linear regression, after log transformation of concentrations and data normalization using GraphPad Prism 7.02.
Fig 4 Three week juvenile worms are immobilised by N-Acyl homoserine lactones. Three-week old juvenile S. mansoni worms (n = 13–33 per well) were co-cultured with compounds (1) and (3) at concentrations spanning 15 μM—0.23 μM for 72 hrs at 37°C in a humidified atmosphere containing 5% CO2. Parasite motility was scored between 0–4 (0 = no movement/dead, 4 = full movement/healthy). […] A) Effect of compound (1) on juvenile worm motility. (B) Effect of compound (3) on juvenile worm motility. p values are indicated as follows: * <0.05, ** <0.01, *** <0.001.

[2] = Cell cytotoxicity assay (MTT); format: cell-based, human; settings: human, HepG2 cells, MTT, 95% confidence interval, called EC50
Procedure: The cytotoxicity of each compound was assessed on human HepG2 cells as described previously [17]. Briefly, 2 x 10^4 cells/well were seeded in black walled 96-well microtiter plates (Fisher Scientific, Loughborough, UK) and incubated for 24 hr at 37°C in a humidified atmosphere containing 5% CO2. […] Following a further incubation for 24 hr, the MTT assay was performed as previously described [17, 27]. Dose response curves were obtained by non-linear regression, after log transformation of concentrations and data normalization using GraphPad Prism 7.02.

[3] = test system: juvenile S. mansoni worms; assay: Propidium iodide (PI) staining of juvenile S. mansoni worms; format: cell-based, Schistosoma mansoni; settings: 72 hrs
Procedure: as §3
Three week juvenile schistosomes, incubated with compounds (1), (3) or controls for 72 hrs, were subsequently cultured with PI at a final concentration of 2 μg/mL for 15 minutes at 37 °C in an environment containing 5% CO2. PI positive parasites (dead) were counted and the percent live vs dead in each well is indicated. A) Quantification of compound (1) mediated juvenile death. B) Quantification of compound (3) mediated juvenile death.

S. aureus ATCC 29213 = assay: Broth microdilution MIC and IC50 determination, S. aureus; format: cell-based, Staphylococcus aureus; settings: for MIC: ATCC29213, 24 h
Procedure: as §1, §2

[4] = test system: adult S. mansoni worm pairs; assay: Screening of adult S. mansoni blood flukes (7-week worms), WHO-TDR motility scoring; format: cell-based, Schistosoma mansoni; settings: for Selectivity index, adult worm female: HepG2 CC50 / adult female EC50; for Selectivity index, adult worm male: HepG2 CC50 / adult male EC50; for EC50: Schistosoma mansoni
Procedure: (§4) Adult S. mansoni parasites were recovered by hepatic portal vein perfusion from TO outbred mice (HsdOla:TO, Tuck-Ordinary, Envigo, UK) that were percutaneously infected seven weeks earlier with 180 cercariae. Three adult worm pairs per well, in duplicate, were transferred into 48 well plates (Fisher Scientific, Loughborough, UK) and cultured at 37 °C in an atmosphere containing 5% CO2 in DMEM (Gibco, Paisley, UK) containing 10% v/v HEPES, 10% v/v Foetal Bovine Serum (FBS), 0.7% v/v 200 mM L-Glutamine and 1X v/v penicillin-streptomycin. Worms were dosed with test compounds at 20 μM, 10 μM, 5 μM, 2.5 μM, 1.25 μM and 0.625 μM (in 0.2% DMSO) for 72 hr. Adult worms were scored manually at 72 hr using the WHO-TDR metric scoring system as described previously. Dose response curves and EC50 values were obtained by non-linear regression, after log transformation of concentrations and data normalization using GraphPad Prism 7.02. At 72 hr, the medium from each well was also collected, centrifuged at 350 x g for 2 min. Afterwards, the supernatant was removed, and the remaining egg pellet re-suspended in 10% v/v formalin. Eggs that were oval and contained a fully formed lateral spine were subsequently counted.
(§5) Fig 3 Adult schistosome motility and egg production are differentially affected by the nine N-acyl homoserine lactones. […] Parasite motility was evaluated for each sex and scored using the WHO-TDR scoring system (0 = Dead parasite, 4 = Normal/Healthy movement). B) Culture media were collected from some adult co-cultures at 72 hrs and eggs present in the media were counted. p values are indicated as follows: * <0.05, ** <0.01, *** <0.001.
Initially, these screens were conducted at 20 μM; any compounds that scored a 1 or 0 for motility at this primary concentration were further titrated until no further effect was observed. […] Similar to the schistosomula assays, the differences observed in adult parasite motility when treated with the (R)- and (S)- enantiomers of Compound 1 were striking. […] Estimated EC50s for male and female parasites for these two enantiomers were determined (Table 2), with Compound 5 ((R)- enantiomer) having greater activity than Compound 6 ((S)- enantiomer).

[5] = test system: adult S. mansoni worm pairs (egg production); assay: In vitro egg production of adult S. mansoni worm pairs; format: cell-based, Schistosoma mansoni; settings: 72 hr, compared to DMSO
Procedure: as §4, §5
As morbidity associated with schistosomiasis is caused by egg-induced granuloma formation in tissues and the subsequent development of fibrotic lesions around these granulomas, compound-mediated modulation of in vitro egg production (as a surrogate for the in vivo pathology initiator) was next assessed (Fig 3B). […] In comparison to the negative control DMSO, in which egg counts ranged from 300–594 (Average—408), all N-Acyl homoserine lactones affected fecundity.

[6] = Staphylococcus aureus, 24 hr, no visible growth
[7] = Staphylococcus aureus, value in square brackets, 24 hr
[8] = 7-week worms, 72 hr, motility, 95% confidence interval, read-out: ADULT WORM EC50 Female
[9] = 7-week worms, 72 hr, motility, 95% confidence interval, read-out: ADULT WORM EC50 Male

SMILES	MIC (E. coli ATCC 25922; no visible growth) [µg/mL]	MIC (E. coli ATCC 25922; value in square brackets) [µM]	Selectivity index, juvenile worm [1]	EC50 ([1]; 72 hr) [µM]	CC50 at 24 h [2] [µM]	MIC (S. aureus ATCC 29213; [6]) [µg/mL]	MIC (S. aureus ATCC 29213; [7]) [µM]	Selectivity index, adult worm female [4]	Selectivity index, adult worm male [4]	EC50 [4, 8] [µM]	EC50 [4, 9] [µM]	egg laying significantly reduced down to concentration [5] [µM]	also measured
O=C(CBr)NC1CCSC1=O (stereo not drawn) [Compound 3, 2-bromo-N-(2-oxotetrahydrothiophen-3-yl)acetamide]	62.5	262	37.4	0.5	18.7	31.2	131	4.8	4.5	3.9	4.2	2.5	IC50 (E. coli ATCC 25922; ATCC25922, Table 3, OD600, three independent experiments, 95% confidence interval in parentheses): 52.7 µg/mL (≈ 221 µM); complete immobility of juvenile worms observed down to ([1]; 72 hr): 0.94 µM; 100% of the parasites PI positive down to concentration [3]: 0.94 µM; S. aureus MIC (S. aureus ATCC 29213; 24 hr, no visible growth): 31.3 µg/mL; IC50 (S. aureus ATCC 29213; Staphylococcus aureus, ATCC29213, Table 3, OD600, three independent experiments, 95% confidence interval in parentheses): 25.9 µg/mL (≈ 109 µM); significant reduction in adult worm motility observed down to ([4]; 72 hr): 5 µM; EC50 ([4]; sex not stated (abstract), read-out: adult worms EC50): 4.8 µM; effect on egg production (fecundity) [5]: still affected at 1.25 μM, this was not statistically significant
O=C(CBr)NC1CCOC1=O (stereo not drawn) [Compound 1, 2-bromo-N-(2-oxotetrahydrofuran-3-yl)acetamide]	125	563	10.1	4.3	43.5	125	563	5.2	5.3	8.3	8.2	10	significant effect on juvenile worm motility down to ([1]; 72 hr): 7.5 µM; Percent P.I positive parasites ([3]; 3.75 μM): 13.3%; Percent P.I positive parasites ([3]; 7.5 μM): 100%; Percent P.I positive parasites ([3]; 15 μM): 100%
